Test: Deuterium/hydrogen (D/H) exchange in deuterium-enriched dBET1 in PBS (HPLC/UV and LC/MS)
Assay type: physicochemical
Conditions: PBS pH 7.4, 25° C.
Procedure: In order to evaluate the stability against racemization provided by deuterium enrichment at the racemizable chiral center of the glutarimide portion of dBET1, a sample of racemic, deuterium-enriched dBET1 from Example 1 (i.e., D-dBET1 from Example 1) was incubated in PBS (pH=7.4) at 25° C. in the presence of ethyl paraben as an internal standard. A 20 μL solution of racemic, deuterium-enriched dBET1 (D-dBET1), aliquoted from 21.6 mg dissolved in 1 mL DMSO, was added to 4 mL of PBS (pH=7.4). The reaction was performed in duplicate. Aliquots were taken out at preset times and quenched with methanol in the presence of acetic acid (250 μL aliquot quenched with 500 μL 5% (v/v) acetic acid in methanol). The samples were analyzed by HPLC/UV (10 μL injection) and LC/MS (1 μL injection) using a reverse-phase column.
Since the reaction is performed in an achiral medium, the kinetics of D/H exchange will be independent of the chirality of the starting material. As a result, separation of the enantiomers of D-dBET1 prior to the stability study is not required.
A change in the ratio is expected if D/H exchange is observed since, for example, a peak at M+2, where M is the mass of the mono-deuterated isotopomer of dBET1, would by D/H exchange disappear and give a corresponding peak at M+1. Similarly, M+3 would give M+2, etc.

half-life at 0.107 mg/mL: > 24 h
change of mass spectral isotopic distribution as a function of incubation time (up to 24h, LC/MS): did not change significantly
SMILES: [2H]C1(N2C(=O)c3cccc(OCC(=O)NCCCCNC(=O)C[C@@H]4N=C(c5ccc(Cl)cc5)c5c(sc(C)c5C)-n5c(C)nnc54)c3C2=O)CCC(=O)NC1=O (mixture of isomers) [D-dBET1]
area of chromatography peak normalized to internal standard (UV analysis) (ethyl paraben internal standard): decreased as a function of the incubation time

From US10189858B2, “Deuterium-enriched isoindolinonyl-piperidinonyl conjugates and oxoquinazolin-3(4H)-yl-piperidinonyl conjugates and methods of treating medical disorders using same” (DeuteRx, LLC, priority 2015, dated 2019)
